The values that follow come from patent publication US20250327032A1, “AGENT FOR AVOIDING IMMUNE RESPONSE OF TRANSGENIC CELLS” (HYPERION DRUG DISCOVERY CO., LTD., priority 2021, published 2025).

Experiment [1] deals with human mesenchymal stem cells. The experiment can be described thus: Introduction of GFP mRNA by lipofection, yield of GFP-positive cells. As to conditions: 10 pg/cell. The class given is cell-based. The method, then:
(§1) Human mesenchymal stem cells were seeded in a 6-well plate to be about 10,000 cells/cm^2. Human myoblasts were seeded in another 6-well plate to be about 20,000 cells/cm^2. As a culture solution, a basal medium for each cell supplemented with 0.1, 1, or 10 μM of JSH-23 was used. As a control, a basal medium for each cell supplemented with 0.1% (v/v) DMSO instead of JSH-23 was used as a culture solution.
(§2) A lipofection solution was prepared by adding Lipofectamine RNAiMAX and fluorescent protein GFP mRNA to OptiMEM. As the GFP mRNA, that containing uridine or that containing pseudouridine instead of uridine was used. In addition, for those containing pseudouridine, a basal medium for each cell supplemented with 1 μM of JSH-23 was used, and as a control, a basal medium for each cell supplemented with 0.1% (v/v) DMSO instead of JSH-23 was used as a culture solution. It was prepared so that the amount of mRNA was 10 pg/cell for human mesenchymal stem cells and 5 pg/cell for human myoblasts. The prepared lipofection solution was mixed well according to the manufacturer's recommended protocol and allowed to stand at room temperature for about 15 minutes.
(§3) Next, each lipofection solution was added to the plate seeded with human mesenchymal stem cells or human myoblasts, and cultured in a CO2 incubator at 37° C. for about 1 day (18 hours) (human mesenchymal stem cells) or for 2 days (42 hours) (human myoblasts). After culturing, all the culture solution comprising the lipofection solution was removed and replaced with a new culture solution having the same composition as before the addition of the lipofection solution.
(§4) After another 6 hours, the above lipofection solution was newly prepared, added again to the plate seeded with human mesenchymal stem cells or human myoblasts, and cultured in a CO2 incubator at 37° C. for about 1 day (18 hours) (mesenchymal stem cells) or about 2 days (42 hours) (human myoblasts). These steps were repeated so that the introduction of genes was performed a total of 4 times.
(§5) Twenty-four hours after the final introduction of genes, the cells were detached with a cell detachment solution, centrifuged at 600×g for 5 minutes using a centrifuge, to collect the cells. The collected cells were counted using a hemocytometer. Furthermore, the GFP-positive percentage of the collected cells was measured using a flow cytometer. The yield of the number of GFP-positive cells was calculated from the number of cells counted and the GFP-positive rate.
(§6) Human mesenchymal stem cells were seeded in a 6-well plate to be about 10,000 cells/cm^2. Human myoblasts were seeded in another 6-well plate to be about 20,000 cells/cm^2. As a culture solution, a basal medium for each cell supplemented with 1 μM of calcitriol was used. As a control, a basal medium for each cell supplemented with 0.1% (v/v) DMSO instead of calcitriol was used as a culture solution.
(§7) A lipofection solution was prepared by adding Lipofectamine RNAiMAX and fluorescent protein GFP mRNA to OptiMEM. As the GFP mRNA, that containing uridine, or that containing pseudouridine instead of uridine was used. It was prepared so that the amount of mRNA was 10 pg/cell for human mesenchymal stem cells and 5 pg/cell for human myoblasts. The prepared lipofection solution was mixed well according to the manufacturer's recommended protocol and allowed to stand at room temperature for about 15 minutes.

The subject of experiment [2] is human myoblasts. Described as above. It is filed as cell-based. The conditions noted are these: 5 pg/cell. The method, then:
as §1, §2, §3, §4, §5, §6, §7

The test system of experiment [3] is human mesenchymal stem cells. The experiment can be described thus: Introduction of TERT mRNA by lipofection, number of viable cells. The conditions noted are these: JSH-23 1 μM, 10 pg/cell. It is filed as cell-based. The method, then: (§8) Human mesenchymal stem cells were seeded in a 6-well plate to be about 10,000 cells/cm^2. Human myoblasts were seeded in another 6-well plate to be about 20,000 cells/cm^2. As a culture solution, a basal medium for each cell supplemented with 1 μM of JSH-23 was used. As a control, a basal medium for each cell supplemented with 0.1% (v/v) DMSO instead of JSH-23 was used as a culture solution.
(§9) A lipofection solution was prepared by adding Lipofectamine RNAiMAX and TERT mRNA to OptiMEM. As the TERT mRNA, that containing uridine, or that containing pseudouridine instead of uridine was used. It was prepared so that the amount of mRNA was 10 pg/cell for human mesenchymal stem cells and 5 pg/cell for human myoblasts. The prepared lipofection solution was mixed well according to the manufacturer's recommended protocol and allowed to stand at room temperature for about 15 minutes.
as §3, §4
(§10) Twenty-four hours after the final introduction of genes, the cells were detached with a cell detachment solution, centrifuged at 600×g for 5 minutes using a centrifuge, to collect the cells. The collected cells were counted using a hemocytometer.

In experiment [4] the test system is human myoblasts. Described as above. It is filed as cell-based. The conditions noted are these: JSH-23 1 μM, 5 pg/cell. The method, then:
as §8, §9, §3, §4, §10

The subject of a further experiment is TNF-α. Put plainly: TNF-α expression level (qPCR) after introduction of GFP-tagged CAR-T plasmid. The class given is cell-based, human. As to conditions: Jurkat E6.1; JSH-23 0.1 μM; compared to CAR-T plasmid introduced without JSH-23. Here is the method:
Human leukemia T cells (Jurkat E6.1) were seeded in a 6-well plate to be about 10,000 cells/cm^2. As a culture solution, RPMI1640 medium comprising 10% bovine serum was used. To this, 0.1 μM of JSH-23 was added, or for comparison, 0.1% (v/v) DMSO instead of JSH-23 was added and used.
A lipofection solution was prepared by adding Lipofectamine 2000 and GFP-tagged CAR-T plasmid to OptiMEM. The amount of plasmid was prepared to be 1 pg/cell. The prepared lipofection solution was mixed well according to the manufacturer's recommended protocol and allowed to stand at room temperature for about 15 minutes.
Next, the lipofection solution was added to the plate seeded with human leukemia T cells, and cultured in a CO2 incubator at 37° C. for about 1 day (18 hours). After culturing, all the culture solution comprising the lipofection solution was removed and replaced with a new culture solution having the same composition as before the addition of the lipofection solution. […]
cDNA was synthesized from the purified RNA using SuperScript™ III Reverse Transcriptase according to the manufacturer's protocol. qPCR was performed using the synthesized cDNA and PCR primers as well as PowerTrack™ SYBR Green Master Mix. The measured Ct value of TNF-α was normalized with the Ct value of β-actin, a housekeeping gene.

The test system of another experiment is IFN-α. The experiment can be described thus: IFN-α expression level (qPCR) after introduction of GFP-tagged CAR-T plasmid. The class given is cell-based, human. The conditions noted are these: Jurkat E6.1; JSH-23 0.1 μM; compared to CAR-T plasmid introduced without JSH-23. A general note: Real-time PCR tracks product formation cycle by cycle.
The mark [5] stands for this setting: GFP mRNA containing pseudouridine instead of uridine, JSH-23 1 μM.
Where [6] appears, read: TERT mRNA containing pseudouridine instead of uridine.

`Cc1ccc(NCCCc2ccccc2)c(N)c1` [JSH-23]: the “yield of GFP-positive cells compared to the control (control set to 1)” value in experiment [1] (setting [5]) is ≥ 7 times; in experiment [1] (GFP mRNA containing uridine, 4 introductions, JSH-23 0.1, 1 or 10 μM, maximal at 1 μM, control 0.1% DMSO), ≥ 7 times; in the experiment on human myoblasts [2] (setting [5]), ≥ 2 times; in the experiment on human myoblasts [2] (GFP mRNA containing uridine, JSH-23 0.1, 1 or 10 μM), ≥ 3 times. The “yield (number of viable cells) compared to the control (control set to 1)” value is listed as ≥ 1.3 times in experiment [3] (setting [6]), ≥ 1.5 times in experiment [3] (TERT mRNA containing uridine), ≥ 5 times in the experiment on human myoblasts [4] (setting [6]) and ≥ 7 times in the experiment on human myoblasts [4] (TERT mRNA containing uridine). For the same compound, the “increase in the expression level of TNF-α” value in the experiment on TNF-α is listed as “reduced”. The “increase in the expression level of IFN-α” value in the experiment on IFN-α is on record as “reduced”.
